“Also recorded” adds a separate entry of the source. Blank lines part the entries; values can stand above or below the compound they belong to.
Tests used:
[1] = system: biopsy-confirmed DIO-NASH mice; assay: DIO-GAN NASH mice: liver transcriptomics by RNAseq; assay type: in vivo, C57BL/6JRj mice; settings: RNAseq at termination
Source text: C57BL/6JRj male mice (n=138) were fed the Gubra Amylin NASH (GAN) diet (40% fat, 22% fructose, 2% cholesterol [D09100310, Research Diets]) or lean chow diet for 35 weeks before treatment start. Prior to treatment all animals underwent liver biopsy for histological confirmation (steatosis score ≥2 and fibrosis stage ≥1) and stratification using the nonalcoholic fatty liver disease (NAFLD) activity scoring (NAS) and fibrosis staging system. The diet-induced obese mice on GAN diet (DIO-GAN) were randomized to 8 treatment groups (Table 16) based on percent-area of picrosirius red (PSR) staining. […] Vehicle-dosed lean chow-fed controls served as healthy controls (n=10). Mice were maintained on their respective diets (GAN or lean chow) for the duration of the study. Within-subject comparisons (pre-vs. post-treatment) were performed for liver biopsy histopathological scores. Terminal quantitative endpoints included plasma/liver biochemistry, liver histomorphometry, and liver transcriptomic analysis by RNAseq.
Tissue was collected and snap-frozen in liquid nitrogen and stored at −80 C until processing. RNA was isolated using a NucleoSpin kit ([…]-NAGEL). […]

[2] = Multiple ascending dose trial: adverse event and safety monitoring; assay type: in vivo, human; settings: for AEs by relationship to drug: Not related / AEs by relationship to drug: Possibly related / AEs by relationship to drug: Related / AEs by relationship to drug: Unlikely related / Any AE, all CTCAE grades / Grade 1 / Grade 2 or higher / Serious AEs: N = 6
Description: A multiple-ascending dose clinical trial of Compound 1 was performed.

[3] = system: SHBG, Apo B and serum lipids; assay: Single ascending dose trial: serum PD biomarkers; assay type: in vivo, human; settings: for Apo B Change / SHBG Change: n = 6
Description: (§1) A single-ascending dose clinical trial of Compound 1 (potassium salt) was performed.
(§2) PK parameters were estimated via noncompartmental methods using Phoenix WinNonlink (Certara, LP, Princeton, NJ). Concentrations of serum pharmacodynamic (PD) biomarkers apolipoprotein B (Apo B) and sex hormone binding globulin (SHBG) were measured using an immunoassay and serum lipids were determined using spectrophotometry.
PD sampling was performed pre-dose, and 48 hours and 72 hours post-dose. Percent change from baseline for PD markers were calculated using an ANCOVA model with percent change from baseline as dependent variable, treatment group as fixed effect, and baseline as covariate. Analyses used observed data only without imputation for missing data.

[4] = Multiple ascending doses in healthy subjects with elevated LDL-c: PK; assay type: in vivo, human; settings: 1, 3, 6 or 10 mg once daily for 14 days
Source text: Secondary Objectives: Evaluate the PK and PD of Compound 1 in healthy subjects with elevated LDL-c following multiple ascending doses of Compound 1.

[5] = Food effect on PK performance in beagle dogs; assay type: in vivo; settings: 10 mg capsule, 5% SLS; fasted vs high fat fed dogs, n=3 per group
Description: To determine the food effect on PK performance, beagle dogs were divided into two groups (n=3 per group). For the fasted group, dogs were fasted overnight through 4-hours post dosing. For the fed group, dogs were fed high fat food 30 minutes prior to administration.

[6] = Single ascending dose trial: plasma and urine pharmacokinetics; assay type: in vivo, human; settings: for fe (fraction of dose excreted in urine as unmodified Compound 1): fasted, n = 6, mean (% CV)
Description: as §1, §2

[7] = Multiple ascending doses in healthy subjects with elevated LDL-c: safety; assay type: in vivo, human; settings: 1, 3, 6 or 10 mg once daily for 14 days
Source text: Objectives: Assess the overall safety and tolerability of multiple ascending doses of Compound 1 in healthy subjects with elevated LDL-c.
Primary Endpoints: Treatment-emergent adverse events (TEAEs), vital signs, clinical laboratory parameters, and electrocardiogram (ECG) monitoring.

[8] = Capsule stability studies under stressed conditions; assay type: physicochemical
Description: A direct encapsulation (DE) formulation study of Compound 1 was carried out. This work included DE process development for the preparation of 1 mg, 3 mg, 10 mg, 50 mg and placebo capsules by a semi-automatic or automatic capsule filling machine. Ingredients, ratios, filling weight, flowability and uniformity of the formulation were all evaluated. The developed processes are suitable for the manufacture of Compound 1 drug products for future clinical studies.
Silica gel desiccant was subsequently proposed for the packaging and proven to be effective to mitigate the formation of the impurity.
The effectiveness of the silica gel desiccant in minimizing the degradation was evaluated through comparative stability studies with or without desiccant included in the primary packaging. […] Therefore, packaging with 1 g desiccant was determined to improve product quality and increase product shelf life.

[9] = 14-day daily dosing up to 10 mg

Structure (SMILES): Cn1cc(C(=O)O)c2ccc(C3CCC(OCc4c(-c5c(Cl)cccc5Cl)noc4C4CC4)CC3)cc21 (stereo not shown) [Compound 2]
liver expression of Col1a1, Acta2, Lgals3 and CD146 relative to DIO-GAN vehicle control [1]: significantly reduced expression
liver expression of Scd1 [1]: reduced

food effect on Tmax [5]: delayed
renal excretion ([6]; all single doses): Minimal renal excretion
fe (fraction of dose excreted in urine as unmodified Compound 1) ([6]; single 3 mg dose): 2.95 (62) % dose, urine
fe (fraction of dose excreted in urine as unmodified Compound 1) ([6]; single 10 mg dose): 2.05 (74) % dose, urine
fe (fraction of dose excreted in urine as unmodified Compound 1) ([6]; single 30 mg dose): 1.78 (35) % dose, urine
fe (fraction of dose excreted in urine as unmodified Compound 1) ([6]; single 60 mg dose): 1.53 (53) % dose, urine
capsule short stability ([8]; 3 mg strength capsule, 60° C./75% RH, two weeks): a degradation impurity formed
Structure (SMILES): N#Cc1nn(-c2cc(Cl)c(Oc3n[nH]c(=O)c4ccccc34)c(Cl)c2)c(=O)[nH]c1=O [Compound 1, 2-(3,5-dichloro-4-((4-oxo-3,4-dihydrophthalazin-1-yl)oxy)phenyl)-3,5-dioxo-2,3,4,5-tetrahydro-1,2,4-triazine-6-nitrile]
AEs by relationship to drug: Not related ([2]; 3 mg once daily for 14 days): 1 (16.7%) n (%)
AEs by relationship to drug: Possibly related ([2]; 3 mg once daily for 14 days): 0 n (%)
AEs by relationship to drug: Related ([2]; 3 mg once daily for 14 days): 0 n (%)
AEs by relationship to drug: Unlikely related ([2]; 3 mg once daily for 14 days): 0 n (%)
Any AE, all CTCAE grades ([2]; 3 mg once daily for 14 days): 1 (16.7%) n (%)
Grade 1 ([2]; 3 mg once daily for 14 days): 1 (16.7%) n (%)
Grade 2 or higher ([2]; 3 mg once daily for 14 days): 0 n (%)
Serious AEs ([2]; 3 mg once daily for 14 days): 0 n (%)
AEs by relationship to drug: Not related ([2]; 6 mg once daily for 14 days): 0 n (%)
AEs by relationship to drug: Possibly related ([2]; 6 mg once daily for 14 days): 1 (16.7%) n (%)
AEs by relationship to drug: Related ([2]; 6 mg once daily for 14 days): 0 n (%)
AEs by relationship to drug: Unlikely related ([2]; 6 mg once daily for 14 days): 0 n (%)
Any AE, all CTCAE grades ([2]; 6 mg once daily for 14 days): 1 (16.7%) n (%)
Grade 1 ([2]; 6 mg once daily for 14 days): 1 (16.7%) n (%)
Grade 2 or higher ([2]; 6 mg once daily for 14 days): 0 n (%)
Serious AEs ([2]; 6 mg once daily for 14 days): 0 n (%)
AEs by relationship to drug: Not related ([2]; 10 mg once daily for 14 days): 2 (33.3%) n (%)
AEs by relationship to drug: Possibly related ([2]; 10 mg once daily for 14 days): 0 n (%)
AEs by relationship to drug: Related ([2]; 10 mg once daily for 14 days): 0 n (%)
AEs by relationship to drug: Unlikely related ([2]; 10 mg once daily for 14 days): 0 n (%)
Any AE, all CTCAE grades ([2]; 10 mg once daily for 14 days): 2 (33.3%) n (%)
Grade 1 ([2]; 10 mg once daily for 14 days): 2 (33.3%) n (%)
Grade 2 or higher ([2]; 10 mg once daily for 14 days): 0 n (%)
Serious AEs ([2]; 10 mg once daily for 14 days): 0 n (%)
ALT increase to ≥2×ULN ([2]; 14-day daily dosing): no treated subject
ECGs, cardiac biomarkers, or other clinical lab tests ([2]; 14-day daily dosing): No remarkable changes
TSH or free T3 ([2]; 14-day daily dosing): without clear change
free T4 ([2]; 14-day daily dosing): declined in dose-dependent fashion
free testosterone ([2]; 14-day daily dosing): no significant change in free levels
total testosterone ([2]; 14-day daily dosing): Dose-dependent total testosterone increases
Heart rate and blood pressure [2, 9]: remained stable throughout the study
grade of AEs [2, 9]: Grade 1
tolerability [2, 9]: overall well-tolerated
GGT ([2]; 14-day daily dosing, values remaining below ULN): Dose-dependent GGT increases
Apo B Change ([3]; Day 3 after single 3 mg dose): −1.5%
SHBG Change ([3]; Day 3 after single 3 mg dose): 0.20 nmol/L
Apo B Change ([3]; Day 3 after single 10 mg dose): −5.6%
SHBG Change ([3]; Day 3 after single 30 mg dose): 6.0 nmol/L
LDL-c, total cholesterol, and Apo-B ([3]; Day 3 following single dose, similar on Day 4): Dose-dependent decreases
triglyceride levels ([3]; after a single dose): No significant changes
SHBG relative to placebo ([3]; single doses of ≥10 mg): Significant increases
PK dose proportionality and variability [4]: dose-proportional PK with low variability
food effect on plasma exposure [5]: did not have an impact on the plasma exposure
dose proportionality of exposures (AUC, Cmax) ([6]; single doses 3-60 mg): approximately dose-proportional; also recorded: linear and dose-proportional plasma exposures with low variability
ALT increase to ≥2×ULN [7]: No subject
free T4 [7]: Dose-dependent declines
safety and tolerability [7]: generally safe and well-tolerated
severity of AEs [7]: mild to moderate with no apparent dose relationship
effect of desiccant packaging on degradation impurities ([8]; 1, 3, 10 and 50 mg capsules, 40° C./75% RH): significantly retarded the formation of degradation impurities
